Each molecule was assayed against T1, CD38 NADase (Homo sapiens, UniProt P28907, N100D/N164D/N209D/N219D) (assay: Enzyme activity assay: inhibition of the NAD-glycohydrolase (NADase) activity of recombinant CD38 (NAD cycling assay)). Settings: recombinant CD38 0.3 ng, 2 h preincubation at room temperature, NAD 2.5 µM.
T1 construct: pPICZαA carrying the C-terminus of CD38 (AA46-300, with the four glycosylation sites mutated); made in house; host or cells: Pichia pastoris X33 (pPICZαA vector)
T1 sequence (P28907 46-300 N100D/N164D/N209D/N219D): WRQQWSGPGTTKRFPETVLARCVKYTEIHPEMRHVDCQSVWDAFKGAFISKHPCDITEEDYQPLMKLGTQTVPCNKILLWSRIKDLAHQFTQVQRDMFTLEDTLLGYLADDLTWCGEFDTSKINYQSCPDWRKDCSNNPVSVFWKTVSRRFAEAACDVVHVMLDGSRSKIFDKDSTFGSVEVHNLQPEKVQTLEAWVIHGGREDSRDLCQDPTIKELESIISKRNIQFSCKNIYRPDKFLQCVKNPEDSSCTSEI
Format: biochemical
Experimental: Enzyme inhibition assays. The inhibitory activities to CD38 NADase of NAD analogues were evaluated by the method reported before. In this method, the inhibitions of NADase activities were calculated from the decrease of the NAD content.
Recombinant CD38, produced with a yeast expression system (Invitrogen, Carlsbad, CA, USA) was used to prepare the recombinant CD38 as reported previously. Briefly, pPICZαA carrying the C-terminus of CD38 (AA46-300, with the four glycosylation sites mutated, N100D, N164D, N209D and N219D) was transformed Pichia pastoris yeast, X33. The recombinant CD38 was induced by methanol and purified by phenylsepharose chromatography and cation exchange chromatography (SP column, GE Healthcare, Little Chalfont, UK). All the chemicals used in the enzymatic assays were purchased from Sigma (Santa Clara, CA, USA).
To study the inhibition of the NAD-glycohydrolase (NADase) activity of CD38 by the compounds, an enzymatic assay was performed. Briefly, different concentrations of the compound were mixed with recombinant CD38 (0.3 ng) and bovine serum albumin (1 µg) in a 16 µL-reaction mixture, then incubated in the dark for 2 hours at room temperature. NAD was added to the mixture to a final concentration of 2.5 µM to start the reaction. Aliquots (4 µL) of the reaction mixtures were withdrawn at 0, 4, 8 and 12 min, and the reaction was stopped by adding 4 µL of 0.6 M HCl, followed by neutralization with 8 µL of 0.5 M phosphate buffer, pH 8. The subsequent cycling reaction was conducted in 96-well plate with 16 µL of the sample mixed with 100 µL of the reagent containing 2% ethanol, 100 µg/mL alcohol dehydrogenase, 20 µM resazurin, 11 µg/mL diaphorase, 10 µM flavin mononucleotide and 100 mM sodium phosphate, pH 7. The cycling reaction was allowed to proceed for 10 min and the rate of fluorescence increase of resorufin (with excitation at 544 nm and emission at 590 nm) was measured using the Infinite M200 fluorescence plate reader (TECAN, Grödig, Austria). The relative NAD content was measured from the slope of fluorescence increase and the NAD-glycohydrolase activity was calculated from the decrease of NAD content at 0, 4, 8 and 12 min after the reaction started. As a control, each compound was directly added to the cycling reaction system with corresponding concentration to evaluate the potential interference to the cycling assay itself. IC50 values of inhibitors were calculated by the GraphPad Prism 5 software (GraphPad Software, Inc., La Jolla, CA, USA).

| IC50, inhibitory activities of CD38 NADase | SMILES |
| --- | --- |
| n.s. | C[C@@]1(F)[C@H](O)[C@@H](COP(=O)(O)CP(=O)(O)OC[C@H]2O[C@@H]([n+]3cccc(C(N)=O)c3)[C@](C)(F)[C@@H]2O)O[C@H]1[n+]1cccc(C(N)=O)c1 [Compound 22, Bis(2′-deoxy-2′-fluoro-2′-methyl-β-nicotinamide)-methylenediphosphonate] |

Same assay, conditions: recombinant CD38 0.3 ng, 2 h preincubation at room temperature, NAD 2.5 µM; read-out: IC50, inhibitory activities of CD38 NADase

| SMILES | IC50 [µM] |
| --- | --- |
| CC1(F)C(O)C(COP(=O)([O-])OP(=O)(O)OCC2OC(n3cnc4c(N)ncnc43)C(O)C2O)OC1[n+]1cccc(C(N)=O)c1 (stereo not drawn) [Compound 7, 2′-Deoxy-2′-fluoro-2′-methyl-β-nicotinamide adenine dinucleotide] | 1810 |
| NC(=O)c1ccc[n+]([C@@H]2O[C@H](COP(=O)(O)O)[C@@H](O)[C@@H]2F)c1 [Compound 8, 2′-deoxy-2′-fluoroarabinosyl-β-nicotinamide mononucleotide, reference compound] | 0.297 |
| NC(=O)c1ccc[n+](C2OC(CSP(=O)(O)OP(=O)([O-])OCC3OC(n4cnc5c(N)ncnc54)C(O)C3O)C(O)C2F)c1 (stereo not drawn) [Compound 10, 2′-Deoxy-2′-fluoro-5′-thio-phosphate-arabinofuranoside-β-nicotinamide adenine dinucleotide] | 0.341 |
| NC(=O)c1ccc[n+](C2OC(COP(=O)([O-])OP(=O)(O)OP(=O)(O)OCC3OC(n4cnc5c(N)ncnc54)C(O)C3O)C(O)C2F)c1 (stereo not drawn) [Compound 11, P^1-(Adenosine)-P^3-(2′-deoxy-2′-fluoro-β-nicotinamide arabinofuranoside) triphosphate] | 1.15 |
| NC(=O)c1ccc[n+](C2OC(COP(=O)([O-])OP(=O)(O)OCC3OC(n4cnc5c(=O)[nH]cnc54)C(O)C3O)C(O)C2F)c1 (stereo not drawn) [Compound 12, 2′-Deoxy-2′-fluoro-arabinosyl-β-nicotinamide hypoxanthine dinucleotide] | 0.109 |
| NC(=O)c1ccc[n+](C2OC(COP(=O)([O-])OP(=O)(O)OCC3OC(n4cnc5c(=O)[nH]c(N)nc54)C(O)C3O)C(O)C2F)c1 (stereo not drawn) [Compound 13, 2′-Deoxy-2′-fluoro-arabinosyl-β-nicotinamide guanine dinucleotide] | 0.0893 |
| COc1ncnc2c1ncn2C1OC(COP(=O)(O)OP(=O)([O-])OCC2OC([n+]3cccc(C(N)=O)c3)C(F)C2O)C(O)C1O (stereo not drawn) [Compound 19, 2′-Deoxy-2′-fluoro-arabinosyl-β-nicotinamide 6-O-methyl-hypoxanthine dinucleotide] | 0.133 |
| NC(=O)c1ccc[n+]([C@@H]2O[C@H](COP(=O)(O)OP(=O)(O)OC[C@H]3O[C@@H]([n+]4cccc(C(N)=O)c4)[C@@H](F)[C@@H]3O)[C@@H](O)[C@@H]2F)c1 [Compound 20, Bis(2′-deoxy-2′-fluoro-β-nicotinamide-arabinosyl) pyrophophate] | 0.575 |
| NC(=O)c1ccc[n+]([C@@H]2O[C@H](COP(=O)(O)CP(=O)(O)OC[C@H]3O[C@@H]([n+]4cccc(C(N)=O)c4)[C@@H](F)[C@@H]3O)[C@@H](O)[C@@H]2F)c1 [Compound 21, Bis(2′-deoxy-2′-fluoro-β-nicotinamide-arabinosyl)-methylenediphosphonate] | 7.98 |
| NC(=O)c1ccc[n+]([C@@H]2O[C@H](COP(=O)([O-])OP(=O)(O)OC[C@H]3O[C@@H](n4cnc5c(N)ncnc54)[C@H](O)[C@@H]3O)[C@@H](O)[C@@H]2F)c1 [Compound 23, 2′-deoxy-2′-fluoroarabinosyl-β-nicotinamide adenine dinucleotide, reference compound] | 0.0611 |

Same assay, conditions: recombinant CD38, NAD 2.5 µM

| SMILES | inhibition of CD38 NADase, in words |
| --- | --- |
| CC1(F)C(O)C(COP(=O)([O-])OP(=O)(O)OCC2OC(n3cnc4c(N)ncnc43)C(O)C2O)OC1[n+]1cccc(C(N)=O)c1 (stereo not drawn) [Compound 7, 2′-Deoxy-2′-fluoro-2′-methyl-β-nicotinamide adenine dinucleotide] | weak inhibition |

— article PMC6271716, “Design, Synthesis and SAR Studies of NAD Analogues as Potent Inhibitors towards CD38 NADase” (Molecules, 2014)
